Reference: patent US5104859A, “Continuous administration of adenosine to reduce pulmonary vascular resistance” (priority 1990, dated 1992)
Read-outs that look alike come from different tables or passages of the source.

Tests used:
[1] = Fredholm and Sollevi; cited from earlier work
Solubility of adenosine = type: physicochemical; conditions: for solubility: read-out: solubility limit
[2] = system: pulmonary vascular resistance; conditions: systemic vasodilator doses
[3] = system: systemic arterial blood pressure and central hemodynamics; assay: Controlled hypotension in surgical patients without dipyridamole pretreatment; type: in vivo, human
Description: For this indication, adenosine typically is administered intravenously via the left basilic vein or via a central vein in an amount (or at a rate) sufficient to achieve the desired hypotensive effect.
The actual plasma levels of adenosine employed for controlled hypotension will vary, depending upon such factors as the particular patient, the age of the patient and the desired degree of hypotension. […] The hypotensive effect of adenosine was then studied upon this hypotensive dose of dipyridamole.
Subsequent to the tests described above, a 20 mM solution of adenosine in isotonic saline was administered to 50 surgical patients employing techniques similar to those described, except that pretreatment with dipyridamole was omitted.

[4] = Purine levels in arterial plasma before, during and after adenosine-induced controlled hypotension (HPLC); conditions: in vivo
Description: Blood gases were measured with appropriate electrodes for pH, PCO2, and PO2 (Radiometer, Copenhagen). The hemoglobin concentration was determined spectrophotometrically. Samples for the determination of adenosine and its metabolites were collected as described by Sollevi et al., Acta Physiol. Scand., 120: 171-76 (1984). Adenosine and inosine were purified and analyzed by HPLC as described by Fredholm and Sollevi., J. Physiol. (London), 313: 351-67 (1981). Hypoxanthine, xanthine, and uric acid were analyzed by HPLC according to the method of Schweinsberg and Loo., J. Chromatogr., 181: 103-7 (1980). Arterial levels of dipyridamole were determined by HPLC. J. Chromatogr., 162: 98-103 (1979). Blood lactate was measured according to Tfelt-Hansen and Siggard-Andersen. Scand. Clin. Lab. Invest., 27:15-19 (1971).
Measurements and blood samplings were performed immediately before hypotension, as late as possible during hypotension (1-5 min before terminating the infusion) and approximately 30 min after the hypotensive period.
Dipyridamole (5 mg. per ml) was infused iv (0.3-0.4 mg. per kg. over a period of 5-10 min) approximately 20 minutes prior to the induction of controlled hypotension. […] (See Pedersen, J. Chromatogr., 162: 98-103 (1979).
The infusion was started at a rate of 0.01 mg. per kg. per minute, which was doubled at 15 second intervals until the desired MABP level of 40-50 mmHg was reached. […] Serum creatinine was determined before and on two consecutive days after operation. The standard ECG was recorded the day before and the day after operation.
The statistical significance (control 1 vs. adenosine and control 1 vs. control 2) was determined by Student's t test for paired data. A P value of <0.05 was regarded as significant.
The purine levels of nine of the patients were determined prior to, during and after adenosine-induced controlled hypotension.

cardiovascular system = conditions: bolus about 37.5 to 450 micrograms/kg; cited from earlier work

Nc1ncnc2c1ncn2[C@@H]1O[C@H](CO)[C@@H](O)[C@H]1O [adenosine]
plasma half-life [1]: 10 to 20 s
solubility limit (Solubility of adenosine; b421 prints mg/ml): 5.5-6 milligrams per milliliter
solubility (Solubility of adenosine; b421 prints mg/ml): 5500 to 6000 µg/mL
solubility (Solubility of adenosine): ~20 mM
normal pulmonary vascular resistance [2]: negligible or at most, minor effect
mean arterial blood pressure achieved ([3]; about 0.2 to about 0.35 mg/kg/min): 40 to 50 mm Hg
mean arterial blood pressure achieved without significant side effects ([3]; as low as, cannula in left radial artery): 40 millimeters of mercury
effective adenosine dose in man relative to dog ([3]; man 0.2 to 0.35 mg/kg/minute): 30 to 50 times lower
concentration ([4]; human, iv): 2450 ± 650 nM
time for arterial adenosine levels to return to control values after termination of infusion [4]: 3 to 9 min
vasodilating action of injectable bolus (cardiovascular system): little detectable vasodilating action
